Test results taken from patent US8481001B2, “Combination therapies comprising quinoxaline inhibitors of P13K-alpha for use in the treatment of cancer” (Exelixis, Inc., priority 2007, dated 2013).

Tests used:
[1] = system: A549 human lung carcinoma cells; assay: A549 non-small cell lung cancer xenograft model; type: in vivo
Description: A transponder was implanted in each mouse for identification, and animals were monitored daily for clinical symptoms and survival. Body weights were recorded daily.
Compound A was tested both as a single agent and in combination with Compound B. The A549 human non-small cell lung carcinoma cell line harbors a homozygous stop mutation in the gene encoding LKB1, and an activating G12S mutation in K-Ras, promoting activation of both PI3K and mTOR. A549 cells also express wild-type EGFR.
As a single agent, Compound B, an inhibitor of EGFR, was orally administered once-daily at 30 mg/kg and Compound A was orally administered either at 30 mg/kg qd or 100 mg/kg q2d. Combination therapies consisted of Compound B with Compound A at 30 mg/kg or 100 mg/kg. Administration of each agent in the combination groups was separated by 6 h.

[2] = system: MCF7 human mammary adenocarcinoma cells; assay: MCF7 breast cancer xenograft model (Study 1 and Study 2); type: in vivo; conditions: Compound B 30 mg/kg qd, single agent
Description: On day 0, cells were harvested by trypsinization, and 5×10^6 cells (passage 10 and 95.4% viability for Study 1, passage 9 and 90% viability for Study 2) in 100 μL of a solution made of 50% cold Hanks balanced salt solution with 50% growth factor reduced matrigel (R&D Systems for Study 1 and Becton Dickinson for Study 2) implanted subcutaneously into the hindflank of female nude mice.
Compound A was tested both as a single agent and in combination with Compound B, an EGFR inhibitor, in a breast tumor model. The MCF7 human breast carcinoma cell line harbors a heterozygous, activating mutation in PI3K (PI3KCA/E545K) and expresses wild-type EGFR.
Compound B was administered orally once-daily (qd) at 30 mg/kg, and Compound A was administered once-daily at 30 mg/kg or once every other day (q2d) at 100 mg/kg. Combination therapies consisted of Compound B together with Compound A at 30 mg/kg qd or 100 mg/kg q2d.

[3] = system: Calu-6 human lung anaplastic carcinoma cells; assay: Calu-6 non-small cell lung cancer xenograft model; type: in vivo; conditions: carboplatin 50 mg/kg i.v. q4d, single agent; FIG. 3
Description: On day 0, cells were harvested by trypsinization, and 5×10^6 cells (passage #8, 96% viability) in 0.1 mL ice-cold Hank's balanced salt solution were implanted intradermally in the hind-flank of 5-8 week old female athymic nude mice. A transponder was implanted in each mouse for identification, and animals were monitored daily for clinical symptoms and survival. Body weights were recorded daily.
Calu-6 is a human NSCLC cell line that harbors a heterozygous activating mutation in K-Ras (Q61K).

MDA-MB-468 cells = conditions: in vitro treatment of MDA-MB-468 cells
Description: (§1) MDA-MB-468 is a human breast carcinoma cell line that has an increase in the copy number of the EGFR gene and a homozygous deletion of PTEN.

[4] = system: MDA-MB-468 human breast adenocarcinoma cells
Description: as §1

[5] = system: PC-3 human prostate adenocarcinoma cells; type: in vivo; conditions: taxol 7.5 mg/kg i.v. twice weekly, single agent; FIG. 1
Description: Female and male athymic nude mice (NCr) 5-8 weeks of age and weighing approximately 20-25 g were used in the following model. Prior to initiation of a study, the animals were allowed to acclimate for a minimum of 48 h. During these studies, animals were provided food and water ad libitum and housed in a room conditioned at 70-75° F. and 60% relative humidity. A12 h light and 12 h dark cycle was maintained with automatic timers. All animals were examined daily for compound-induced or tumor-related deaths.
PC-3 human prostate adenocarcinoma cells were cultured in vitro in DMEM (Mediatech) supplemented with 20% Fetal Bovine Serum (Hyclone), Penicillin-Streptomycin and non-essential amino acids at 37° C. in a humidified 5% CO2 atmosphere. […] A transponder was implanted in each mouse for identification, and animals were monitored daily for clinical symptoms and survival. Body weights were recorded daily.
For subcutaneous or intradermal tumors, the mean tumor weight of each animal in the respective control and treatment groups was determined twice weekly during the study. […] Percent inhibition of tumor growth (TGI) is determined with the following formula: […]
[formula] Tumor size is calculated individually for each tumor to obtain a mean±SEM value for each experimental group. Statistical significance is determined using the 2-tailed Student's t-test (significance defined as P<0.05).

[6] = Compound B 30 mg/kg qd, single agent

With `COc1cc2c(Nc3ccc(Cl)c(Cl)c3F)ncnc2cc1OC[C@@H]1C[C@@H]2CN(C)C[C@@H]2C1` [Compound B, N-(3,4-dichloro-2-fluorophenyl)-7-({[(3aR,5r,6aS)-2-methyloctahydrocyclopenta-[c]pyrrol-5-yl]methyl}oxy)-6-(methyloxy)quinazolin-4-amine] the body weight loss [1, 6] was 1.5-6.9%, the dose omission [1, 6] was “no dose omission” and the tolerability [1, 6] was “generally well tolerated”. The tumor growth inhibition ([1]; Compound B oral 30 mg/kg once-daily for 18 days, single agent) was 80%, the “tolerability (summary)” value ([1]; single agent administration) was “well tolerated with minimal dose skipping” and the tolerability [2] was “generally well tolerated”.

With `N.N.O=C([O-])C1(C(=O)[O-])CCC1.[Pt+2]` [carboplatin] the tumor growth inhibition [3] was “Significant tumor growth inhibition”.

For `C#Cc1cccc(Nc2ncnc3cc(OCCOC)c(OCCOC)cc23)c1` [erlotinib], the PI3K pathway (MDA-MB-468 cells) was “fails to downregulate the PI3K pathway”, the tumor growth inhibition ([4]; erlotinib oral 100 mg/kg qd, single agent, FIG. 5) was “significant but incomplete tumor growth inhibition” and the “rate of body weight gain” value ([4]; mouse, in vivo) was “apparent decrease in their rate of body weight gain”.

In the case of `CC(=O)O[C@H]1C(=O)[C@@]2(C)[C@H]([C@H](OC(=O)c3ccccc3)[C@]3(O)C[C@H](OC(=O)[C@H](O)[C@@H](NC(=O)c4ccccc4)c4ccccc4)C(C)=C1C3(C)C)[C@]1(OC(C)=O)CO[C@@H]1C[C@@H]2O` [taxol, Paclitaxel], the tumor growth inhibition [5] is reported as “Comparable tumor growth inhibition”.
